Columns and labels:
[1] = mouse, cited from earlier work
[2] = tested on: dendritic cells (TLR stimulation); assay: IFN-β and IL-6 production by WT and GADD34ΔC/ΔC DCs stimulated with TLR ligands; format: cell-based, mouse; details: GBZ 50 μM
Experimental: BM-derived DCs were differentiated in vitro from the bone marrow of 6-8 weeks old male mice, using either FLT3 ligand or GM-CSF. Flt3L-DCs were used for experiments between days 6 and 7. Flt3L was produced using B16-Flt3L hybridoma cells. Bone marrow progenitors were plated at 1.5 10^6 cells/ml, 4 ml/well in 6 well plate, and cultivated with RPMI (GIBCO), 10% FCS (Sigma Aldrich), 100 units/ml penicillin and 100 μg/ml streptomycin (GIBCO), 50 μM b-mercaptoethanol (VWR) and Flt3L. For sorted Flt3L-DCs, cells were gently harvested at day 7 with cold PBS 2% FCS, centrifuged 1200 rpm 5 min at 4° C., counted and stained with for 30 mins at 4° C. Cells were sorted with the FACS ARIASorp. Cells were kept on ice all the time. After sorting, cells were resuspended in supplemented Flt3L-DCs medium at the concentration of 0.2 0.10^6 cells/well and plated at in a 96 wells plate U bottom. GM-CSF DCs were produced and used for experiments at day 6 of differentiation.
Splenocytes were dissociated injecting Liberase TL, followed by 25 min incubation at 37° C. Cells were washed using MACS buffer (PBS 1X+1% FBS+2 mM EDTA) and passed in a cell strainer 70 μm, then centrifuged 5 min at 450 RCF, 4° C. Red blood cells were lysed using the commercial buffer from eBioscience. Dendritic cells were purified using CD11c^+ positive selection kit from Miltenyi. Splenic DCs were then resuspended in the same medium as for Flt3L-DCs at 1.10^6 cells/ml and plated in a 12 wells plate, 2 ml×well. B lymphocytes were purified using B cell isolation kit, a negative selection kit from Miltenyi. B cells were then resuspended in a medium composed of RPMI (GIBCO), 10% FCS (Sigma Aldrich), lx glutamine, 1× non-essential amino acids, 10 mM HEPES (all the previous from GIBCO), 50 μM b-mercaptoethanol (VWR). Cells were plated at 1×10^6 cells/well in 96 well plate, flat.
Mouse IFN-β quantification in culture supernatant was performed using the Mouse Interferon Beta ELISA kit (PBL InterferonSource); mouse IL-6, TNFα, IL-10, human TNFα and human IFNα were quantified using ELISA kit (eBioscience) respectively, according to manufacturer instructions.
We have previously shown that GM-CSF-induced bone-marrow-derived DCs from GADD34^ΔC/ΔC mouse display limited capacity to express IFNβ and IL-6 in response to the dsRNA mimic polyriboinosinic:polyribocytidylic acid (poly(I:C)). We investigated whether this observation could be extended to other DC subsets and TLR ligands. WT and GADD34^ΔC/ΔC DC isolated directly from spleen or generated in vitro from bone-marrow progenitors, using either Flt3L- or GM-CSF-induced differentiation, were submitted to stimulation with LPS, poly(I:C) or CpG ODN and analyzed for IFN-β and IL-6 production (data not shown). […]

[3] = GADD34ΔC/ΔC Flt3L-DCs, CpG ODN stimulation

Compound: NC(N)=N/N=C/c1c(Cl)cccc1Cl [GBZ, 2-(2,6-dichlorobenzylidene)-hydrazinecarboximidamide]
- spinal cord accumulation ([1]; several hours after single i.p. bolus 2 mg/kg): approximately 7 μM
- plasma half-life ([1]; single i.p. bolus 2 mg/kg): 1.8 h
- IFN-β production [2, 3]: incapable of producing
- IL-6 production [2, 3]: incapable of producing
- IFN-β production in response to TLR9 stimulation compared with Gadd34 genetic inactivation ([2]; data not shown): far stronger capacity to inhibit
- IL-6 production compared with Gadd34 genetic inactivation ([2]; data not shown): superimposable to GADD34 deficiency

Reference: patent publication US20210177814A1, “USE OF GUANABENZ OR DERIVATES THEREOF FOR THE TREATMENT OF TYPE I IFN-DEPENDENT PATHOLOGIES” (INSERM (Institut National de la Santé et de la Recherche …, priority 2018, published 2021)
